In patent US5563145A, “Rapamycin 42-oximes and hydroxylamines” (American Home Products Corporation, priority 1994, dated 1996):
Read-outs that look alike come from different tables or passages of the source.

Columns and labels:
[1] = tested on: cells from the thymus of normal BALB/c mice (T-cell proliferation); experiment: comitogen-induced thymocyte proliferation procedure (LAF); assay type: cell-based; settings: for IC50: read-out: LAF IC50; for LAF ratio (compared with rapamycin): ratio >1: inhibited thymocyte proliferation to a greater extent than rapamycin; for LAF percent inhibition of T-cell proliferation: at 0.1 μM
Description: (§1) Immunosuppressive activity for representative compounds of this invention was evaluated in an in vitro standard pharmacological test procedure to measure the inhibition of lymphocyte proliferation (LAF) and in two in vivo standard pharmacological test procedures. The pinch skin graft test procedure measures the immunosuppressive activity of the compound tested as well as the ability of the compound tested to inhibit or treat transplant rejection. The adjuvant arthritis standard pharmacological test procedure measures the ability of the compound tested to inhibit immune mediated inflammation. The adjuvant arthritis test procedure is a standard pharmacological test procedure for rheumatoid arthritis. The procedures for these standard pharmacological test procedures are provided below.
The comitogen-induced thymocyte proliferation procedure (LAF) was used as an in vitro measure of the immunosuppressive effects of representative compounds. Briefly, cells from the thymus of normal BALB/c mice are cultured for 72 hours with PHA and IL-1 and pulsed with tritiated thymidine during the last six hours. Cells are cultured with and without various concentrations of rapamycin, cyclosporin A, or test compound. Cells are harvested and incorporated radioactivity is determined. Inhibition of lymphoproliferation is assessed as percent change in counts per minute from non-drug treated controls. For each compound evaluated, rapamycin was also evaluated for the purpose of comparison. An IC50 was obtained for each test compound as well as for rapamycin. […] The results obtained are provided as an IC50 and as the percent inhibition of T-cell proliferation at 0.1 μM. […] A positive ratio indicates immunosuppressive activity. […] Calculation of the ratio is shown below. [formula]

[2] = tested on: pinch skin graft from male BALB/c donors transplanted to male C3H(H-2K) recipients; experiment: in vivo pinch skin graft survival test procedure; design: species or system mice: male BALB/c donors, male C3 H(H-2K) recipients; settings: 4 mg/kg, i.p.; untreated control grafts usually rejected within 6-7 days
Description: as §1
Representative compounds of this invention were also evaluated in an in vivo test procedure designed to determine the survival time of pinch skin graft from male BALB/c donors transplanted to male C3 H(H-2K) recipients. The method is adapted from Billingham R. E. and Medawar P. B., J. Exp. Biol. 28:385-402, (1951). Briefly, a pinch skin graft from the donor was grafted on the dorsum of the recipient as a allograft, and an isograft was used as control in the same region. The recipients were treated with either varying concentrations of test compounds intraperitoneally or orally. Rapamycin was used as a test control. Untreated recipients serve as rejection control. The graft was monitored daily and observations were recorded until the graft became dry and formed a blackened scab. This was considered as the rejection day. The mean graft survival time (number of days ±S.D.) of the drug treatment group was compared with the control group. Results are expressed as the mean survival time in days.

[3] = tested on: uninjected hind paw inflammation (immune mediated, Freund's Complete Adjuvant); experiment: adjuvant arthritis standard pharmacological test procedure; assay type: in vivo, male inbred Wistar Lewis rats; settings: 2 mg/kg, oral, 7 doses, day 16; more negative = more potent
Description: as §1
The adjuvant arthritis standard pharmacological test procedure measures the ability of test compounds to prevent immune mediated inflammation and inhibit or treat rheumatoid arthritis. The following briefly describes the test procedure used. A group of rats (male inbread Wistar Lewis rats) are pre-treated with the compound to be tested (1 h prior to antigen) and then injected with Freud's Complete Adjuvant (FCA) in the right hind paw to induce arthritis. The rats are then orally dosed on a Monday, Wednesday, Friday schedule from day 0-14 for a total of 7 doses. Both hind paws are measured on days 16, 23, and 30. The difference in paw volume (mL) from day 16 to day 0 is determined and a percent change from control is obtained. The left hind paw (uninjected paw) inflammation is caused by T-cell mediated inflammation and is recorded as % change from control. The right hind paw inflammation, on the other hand, is caused by nonspecific inflammation. Compounds were tested at a dose of 2 mg/kg.

Candida albicans = settings: in vitro and in vivo; cited from earlier work
[4] = tested on: experimental allergic encephalomyelitis model; settings: a model for multiple sclerosis; cited from earlier work
adjuvant arthritis model = settings: a model for rheumatoid arthritis; cited from earlier work
[5] = tested on: formation of IgE-like antibodies; settings: in vivo; cited from earlier work
[6] = BALB/c mouse thymocytes, PHA and IL-1, 72 hours, tritiated thymidine last six hours

Row | Molecule | IC50 [1, 6] [nM] | LAF ratio (compared with rapamycin) [1] | Skin graft survival (mean graft survival time ± S.D.) [2] [days] | Percent change in adjuvant arthritis versus control (uninjected paw) [3] [%] | other results
1 | 42-Deoxy-42-oxorapamycin 42-[O-(phenylmethyl)]-oxime [Example 8] | 21.7 | 0.03 | – | – | –
2 | 42-Deoxy-42-oxorapamycin 42-[O-(prop-2-ynyl)]-oxime [Example 10] | 8.13 | 0.08 | 8.0 ± 1.1 | – | –
3 | 42-Deoxy-42-oxorapamycin 42-[O-(pyridin-4-ylmethyl)]-oxime [Example 6] | 1.8 | 0.31 | 8.0 ± 0.9 | – | –
4 | CO[C@H]1C[C@@H]2CC[C@@H](C)[C@@](O)(O2)C(=O)C(=O)N2CCCC[C@H]2C(=O)O[C@H]([C@H](C)C[C@@H]2CCC(=NO)[C@H](OC)C2)CC(=O)[C@H](C)/C=C(\C)[C@@H](O)[C@@H](OC)C(=O)[C@H](C)C[C@H](C)/C=C/C=C/C=C/1C [Example 2, 42-Deoxo-42-(hydroxyimino)rapamycin] | 3.88 | 0.85 | 10.8 ± 0.4 | – | –
5 | CO[C@H]1C[C@@H]2CC[C@@H](C)[C@@](O)(O2)C(=O)C(=O)N2CCCC[C@H]2C(=O)O[C@H]([C@H](C)C[C@@H]2CCC(NO)[C@H](OC)C2)CC(=O)[C@H](C)/C=C(\C)[C@@H](O)[C@@H](OC)C(=O)[C@H](C)C[C@H](C)/C=C/C=C/C=C/1C (stereo partly shown) [Example 3, 42-Deoxo-42-(hydroxyamino)rapamycin] | 5.6 | 0.18 | 9.6 ± 0.0 | -84 | –
6 | CO[C@H]1C[C@@H]2CC[C@@H](C)[C@@](O)(O2)C(=O)C(=O)N2CCCC[C@H]2C(=O)O[C@H]([C@H](C)C[C@@H]2CCC(=NOC(N)=O)[C@H](OC)C2)CC(=O)[C@H](C)/C=C(\C)[C@@H](O)[C@@H](OC)C(=O)[C@H](C)C[C@H](C)/C=C/C=C/C=C/1C [Example 4, 42-Deoxy-42-oxorapamycin-42-O-carbamoyloxime] | 2 | 0.25 | 9.5 ± 1.1 | – | –
7 | CO[C@H]1C[C@@H]2CC[C@@H](C)[C@@](O)(O2)C(=O)C(=O)N2CCCC[C@H]2C(=O)O[C@H]([C@H](C)C[C@@H]2CCC(=NOCc3ccccn3)[C@H](OC)C2)CC(=O)[C@H](C)/C=C(\C)[C@@H](O)[C@@H](OC)C(=O)[C@H](C)C[C@H](C)/C=C/C=C/C=C/1C [Example 5, 42-Deoxy-42-oxorapamycin 42-[O-(pyridin-2-ylmethyl)]-oxime] | 1.5 | 0.40 | 7.8 ± 0.8 | -53 | –
8 | COC1CC2CCC(C)C(O)(O2)C(=O)C(=O)N2CCCCC2C(=O)OC(C(C)CC2CCC(=NOC(C)(C)C)C(OC)C2)CC(=O)C(C)C=C(C)C(O)C(OC)C(=O)C(C)CC(C)C=CC=CC=C1C (stereo not shown) [Example 7, 2-Deoxy-42-oxoxapamycin 42-[O-(tert-butyl)]-oxime] | – | – | – | – | LAF percent inhibition of T-cell proliferation [1]: 49%
9 | C=CCON=C1CCC(CC(C)C2CC(=O)C(C)C=C(C)C(O)C(OC)C(=O)C(C)CC(C)C=CC=CC=C(C)C(OC)CC3CCC(C)C(O)(O3)C(=O)C(=O)N3CCCCC3C(=O)O2)CC1OC (stereo not shown) [Example 9, 42-Deoxy-42-oxorapamycin 42-(O-allyl)-oxime] | – | – | – | – | LAF percent inhibition of T-cell proliferation [1]: 43%
10 | CO[C@H]1C[C@@H]2CC[C@@H](C)[C@@](O)(O2)C(=O)C(=O)N2CCCC[C@H]2C(=O)O[C@H]([C@H](C)C[C@@H]2CC[C@@H](O)[C@H](OC)C2)CC(=O)[C@H](C)/C=C(\C)[C@@H](O)[C@@H](OC)C(=O)[C@H](C)C[C@H](C)/C=C/C=C/C=C/1C [rapamycin] | – | – | 11.67 ± 0.63 | -70 | IC50 ([1]; Mus musculus, T-cell): 0.5 to 3.3 nM; antifungal activity, particularly against Candida albicans (Candida albicans): antifungal activity, particularly against Candida albicans; effect in experimental allergic encephalomyelitis model [4]: effective; effect in adjuvant arthritis model (adjuvant arthritis model): effective; inhibition of formation of IgE-like antibodies [5]: effectively inhibited
